Reference: patent publication US9994536B2, “Compounds and methods of treating neurological disorders” (TORREY PINES INSTITUTE FOR MOLECULAR STUDIES, priority 2014, dated 2018)

Assays:
[1] = system: Wild-type (WT) C57BL/6 mice; assay: Lethal dose (LD50) study in mice; type: in vivo, mouse
Description: Wild-type (WT) C57BL/6 mice aged about 6 months were used in the study. The compound THPI-244 was initially dissolved in 100% DMSO and then diluted to final 10% DMSO with phosphate buffered saline (PBS). […] Among these 6 mice, 3 mice received repeated injections (i.p) of compound THPI-244 for 5 days.

PI3Kα = assay: Signal transduction analysis, PI3Kα; type: cell-based, human; details: NT2 cells
Description: (2). THPI-244 increases sAPPα by a novel mechanism of upregulating TrkA, a neurotrophic receptor. Therefore, in addition to increasing neuroprotective sAPPα and decreasing toxic Aβ, THPI-244 mediated increased TrkA protein levels are expected to provide neurotrophic support. Following the validation of the effect of THPI-244 in increasing sAPPα levels in CHO cells, NT2 cells, AD fibroblasts and human primary neurons, we were interested in identifying the molecular target of THPI-244 for unraveling the molecular mechanism by which it increases sAPPα which in turn can predict toxicity profile and whether to pursue long-term studies. Increased protein levels of both native and phosphorylated form of TrkA in NT2 cells and mouse brains by THPI-244 validated TrkA as the target.

In the case of `O=C(Cc1ccccc1)N[C@H](CNc1nc(CN2CCN(C(=O)Cc3ccccc3)CC2)cs1)c1ccccc1` [THPI-244], the lethality ([1]; 100 mg/kg i.p., 6 mice, monitored for 5 days) is reported as “did not result in the death of any of the 6 mice”, the lethality ([1]; 200 mg/kg, single mouse) is reported as “survived without visible ill effects” and the lethality ([1]; repeated i.p. injections for 5 days, 3 mice) is reported as “None of the mice showed any lethal effect”. The “effect on PI3Kα pathway” value (PI3Kα) was “activation of PI3Kα”.
